Data published in PubChem BioAssay AID248 (DTP/NCI, 2004).
Values joined by “and” are separate entries in the source; they are usually repeats but may differ in a detail not shown here. Identical values can stand only once. Inconclusive results and toxic doses are left out. Rule as the data show it: active = T/C of 150% or more; inactive = T/C below 125%.

Test system: L1210 leukemia ip in BDF1 mice, survival T/C
Assay: NCI In Vivo Anticancer Drug Screen. Data for tumor model L1210 Leukemia (intraperitoneal) in B6D2F1 (BDF1) mice
Conditions: higher = longer survival
How it was run: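 Transplantable tumor model; survival measured in treated vs vehicle control mice. Value = treated/control.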

[1] = endpoint: mean survival time, dose: 100.0 mg/kg/injection, schedule: Q01DX009 (ip), vehicle: saline with Tween-80

Measured: T/C

C[C@@H]1C[C@@H]([C@H](O)CC2CC(=O)NC(=O)C2)C(=O)[C@@H](C)C1
inactive: endpoint: mean survival time, dose: 1.5 mg/kg/injection, schedule: Q01DX009 (ip), vehicle: saline with Tween-80 109 % of control | endpoint: mean survival time, dose: 4.31 mg/kg/injection, schedule: Q01DX Z (ip), vehicle: carboxymethylcellulose (CMC) 104 % of control | endpoint: mean survival time, dose: 5.0 mg/kg/injection, schedule: Q01DX010 (ip), vehicle: saline 103 % of control and 107 % of control | endpoint: mean survival time, dose: 7.5 mg/kg/injection, schedule: Q01DX Z (ip), vehicle: carboxymethylcellulose (CMC) 97 % of control and 100 % of control | endpoint: mean survival time, dose: 8.63 mg/kg/injection, schedule: Q01DX Z (ip), vehicle: carboxymethylcellulose (CMC) 102 % of control | endpoint: mean survival time, dose: 10.0 mg/kg/injection, schedule: Q01DX009 (ip), vehicle: acetone 106 % of control | endpoint: mean survival time, dose: 10.0 mg/kg/injection, schedule: Q01DX010 (ip), vehicle: saline 104 % of control and 108 % of control | endpoint: mean survival time, dose: 12.5 mg/kg/injection, schedule: Q01DX Z (ip), vehicle: carboxymethylcellulose (CMC) 108 % of control | endpoint: mean survival time, dose: 15.0 mg/kg/injection, schedule: Q01DX009 (ip), vehicle: Klucel (hydroxypropylcellulose) (HPC) 114 % of control | endpoint: mean survival time, dose: 15.0 mg/kg/injection, schedule: Q01DX009 (ip), vehicle: saline 123 % of control | endpoint: mean survival time, dose: 15.0 mg/kg/injection, schedule: Q01DX Z (ip), vehicle: carboxymethylcellulose (CMC) 108 % of control and 116 % of control | endpoint: mean survival time, dose: 16.0 mg/kg/injection, schedule: Q01DX015 (ip), vehicle: saline 119 % of control | endpoint: mean survival time, dose: 17.25 mg/kg/injection, schedule: Q01DX Z (ip), vehicle: carboxymethylcellulose (CMC) 103 % of control | endpoint: mean survival time, dose: 18.0 mg/kg/injection, schedule: Q01DX015 (ip), vehicle: saline 119 % of control | endpoint: mean survival time, dose: 20.0 mg/kg/injection, schedule: Q01DX009 (ip), vehicle: acetone 119 % of control | endpoint: mean survival time, dose: 20.0 mg/kg/injection, schedule: Q01DX010 (ip), vehicle: saline 110 % of control and 114 % of control | endpoint: mean survival time, dose: 24.3 mg/kg/injection, schedule: Q02DX010 (ip), vehicle: carboxymethylcellulose (CMC) 97 % of control | endpoint: mean survival time, dose: 25.0 mg/kg/injection, schedule: Q01DX Z (ip), vehicle: carboxymethylcellulose (CMC) 106 % of control | endpoint: mean survival time, dose: 25.0 mg/kg/injection, schedule: Q02DX010 (ip), vehicle: other 112 % of control | endpoint: mean survival time, dose: 27.0 mg/kg/injection, schedule: Q01DX015 (ip), vehicle: saline 107 % of control | endpoint: mean survival time, dose: 30.0 mg/kg/injection, schedule: Q01DX009 (ip), vehicle: Klucel (hydroxypropylcellulose) (HPC) 113 % of control | endpoint: mean survival time, dose: 30.0 mg/kg/injection, schedule: Q01DX009 (ip), vehicle: saline with Tween-80 121 % of control | endpoint: mean survival time, dose: 30.0 mg/kg/injection, schedule: Q04DX003 (ip), vehicle: Klucel (hydroxypropylcellulose) (HPC) 108 % of control | endpoint: mean survival time, dose: 32.0 mg/kg/injection, schedule: Q## X004 (ip), vehicle: saline 97 % of control | endpoint: mean survival time, dose: 34.5 mg/kg/injection, schedule: Q01DX Z (ip), vehicle: carboxymethylcellulose (CMC) 121 % of control | endpoint: mean survival time, dose: 36.0 mg/kg/injection, schedule: Q01DX015 (ip), vehicle: saline 115 % of control | endpoint: mean survival time, dose: 37.5 mg/kg/injection, schedule: Q02DX008 (ip), vehicle: saline 108 % of control | endpoint: mean survival time, dose: 38.0 mg/kg/injection, schedule: Q02DX010 (ip), vehicle: other 120 % of control | endpoint: mean survival time, dose: 40.0 mg/kg/injection, schedule: Q01DX010 (ip), vehicle: saline 109 % of control and 116 % of control | endpoint: mean survival time, dose: 42.0 mg/kg/injection, schedule: Q## X032 (ip), vehicle: saline 113 % of control | endpoint: mean survival time, dose: 44.0 mg/kg/injection, schedule: Q01DX001 (ip), vehicle: saline 103 % of control | endpoint: mean survival time, dose: 45.0 mg/kg/injection, schedule: Q01DX Z (ip), vehicle: methylcellulose (MC) 106 % of control | endpoint: mean survival time, dose: 45.0 mg/kg/injection, schedule: Q04DX003 (ip), vehicle: saline 106 % of control | endpoint: mean survival time, dose: 48.0 mg/kg/injection, schedule: Q## X004 (ip), vehicle: saline 96 % of control | endpoint: mean survival time, dose: 50.0 mg/kg/injection, schedule: Q01DX Z (ip), vehicle: carboxymethylcellulose (CMC) 118 % of control | endpoint: mean survival time, dose: 56.0 mg/kg/injection, schedule: Q02DX008 (ip), vehicle: saline 115 % of control | endpoint: mean survival time, dose: 60.0 mg/kg/injection, schedule: Q01DX009 (ip), vehicle: saline 102 % of control | endpoint: mean survival time, dose: 60.0 mg/kg/injection, schedule: Q01DX Z (ip), vehicle: methylcellulose (MC) 106 % of control | endpoint: mean survival time, dose: 60.0 mg/kg/injection, schedule: Q04DX003 (ip), vehicle: Klucel (hydroxypropylcellulose) (HPC) 122 % of control | endpoint: mean survival time, dose: 64.0 mg/kg/injection, schedule: Q## X032 (ip), vehicle: saline 106 % of control and 110 % of control | endpoint: mean survival time, dose: 67.0 mg/kg/injection, schedule: Q01DX001 (ip), vehicle: saline 115 % of control | endpoint: mean survival time, dose: 72.0 mg/kg/injection, schedule: Q## X004 (ip), vehicle: saline 112 % of control | endpoint: mean survival time, dose: 80.0 mg/kg/injection, schedule: Q01DX001 (ip), vehicle: alkali diluted with saline 107 % of control | endpoint: mean survival time, dose: 81.0 mg/kg/injection, schedule: Q01DX015 (ip), vehicle: saline 123 % of control | endpoint: mean survival time, dose: 85.5 mg/kg/injection, schedule: Q02DX010 (ip), vehicle: other 117 % of control | endpoint: mean survival time, dose: 90.0 mg/kg/injection, schedule: Q01DX009 (ip), vehicle: saline 97 % of control | endpoint: mean survival time, dose: 90.0 mg/kg/injection, schedule: Q04DX003 (ip), vehicle: saline 101 % of control | endpoint: mean survival time, dose: 96.0 mg/kg/injection, schedule: Q## X032 (ip), vehicle: saline 106 % of control and 115 % of control | endpoint: mean survival time, dose: 100.0 mg/kg/injection, schedule: Q01DX001 (ip), vehicle: saline 114 % of control | [1] 100 % of control | endpoint: mean survival time, dose: 100.0 mg/kg/injection, schedule: Q01DX Z (ip), vehicle: carboxymethylcellulose (CMC) 117 % of control | endpoint: mean survival time, dose: 100.0 mg/kg/injection, schedule: Q04DX003 (ip), vehicle: saline with Tween-80 112 % of control | endpoint: mean survival time, dose: 108.0 mg/kg/injection, schedule: Q## X004 (ip), vehicle: saline 106 % of control | endpoint: mean survival time, dose: 120.0 mg/kg/injection, schedule: Q01DX001 (ip), vehicle: alkali diluted with saline 106 % of control | endpoint: mean survival time, dose: 120.0 mg/kg/injection, schedule: Q01DX009 (ip), vehicle: Klucel (hydroxypropylcellulose) (HPC) 96 % of control | endpoint: mean survival time, dose: 120.0 mg/kg/injection, schedule: Q01DX009 (ip), vehicle: saline with Tween-80 116 % of control | endpoint: mean survival time, dose: 126.0 mg/kg/injection, schedule: Q02DX008 (ip), vehicle: saline 112 % of control | endpoint: mean survival time, dose: 128.25 mg/kg/injection, schedule: Q02DX010 (ip), vehicle: other 74 % of control | endpoint: mean survival time, dose: 144.0 mg/kg/injection, schedule: Q## X032 (ip), vehicle: saline 118 % of control and 123 % of control | endpoint: mean survival time, dose: 162.0 mg/kg/injection, schedule: Q## X004 (ip), vehicle: saline 110 % of control | endpoint: mean survival time, dose: 180.0 mg/kg/injection, schedule: Q01DX001 (ip), vehicle: alkali diluted with saline 103 % of control | endpoint: mean survival time, dose: 180.0 mg/kg/injection, schedule: Q04DX003 (ip), vehicle: saline 97 % of control | endpoint: mean survival time, dose: 189.0 mg/kg/injection, schedule: Q02DX008 (ip), vehicle: saline 114 % of control | endpoint: mean survival time, dose: 200.0 mg/kg/injection, schedule: Q04DX003 (ip), vehicle: saline with Tween-80 103 % of control | endpoint: mean survival time, dose: 216.0 mg/kg/injection, schedule: Q## X032 (ip), vehicle: saline 113 % of control and 117 % of control | endpoint: mean survival time, dose: 240.0 mg/kg/injection, schedule: Q04DX003 (ip), vehicle: Klucel (hydroxypropylcellulose) (HPC) 116 % of control | endpoint: mean survival time, dose: 320.0 mg/kg/injection, schedule: Q## X032 (ip), vehicle: saline 110 % of control | endpoint: median survival time, dose: 25.0 mg/kg/injection, schedule: Q04DX003 (ip), vehicle: alkali diluted with saline 103 % of control | endpoint: median survival time, dose: 50.0 mg/kg/injection, schedule: Q04DX003 (ip), vehicle: alkali diluted with saline 106 % of control | endpoint: median survival time, dose: 100.0 mg/kg/injection, schedule: Q04DX003 (ip), vehicle: alkali diluted with saline 103 % of control | endpoint: median survival time, dose: 200.0 mg/kg/injection, schedule: Q04DX003 (ip), vehicle: alkali diluted with saline 106 % of control

O=C(Nc1cccc(Cl)c1)Nc1ccccc1C(F)(F)F
inactive: endpoint: mean survival time, dose: 50.0 mg/kg/injection, schedule: Q01DX001 (ip), vehicle: carboxymethylcellulose (CMC) 104 % of control | endpoint: mean survival time, dose: 100.0 mg/kg/injection, schedule: Q01DX001 (ip), vehicle: carboxymethylcellulose (CMC) 106 % of control | endpoint: mean survival time, dose: 200.0 mg/kg/injection, schedule: Q01DX001 (ip), vehicle: carboxymethylcellulose (CMC) 106 % of control | endpoint: mean survival time, dose: 400.0 mg/kg/injection, schedule: Q01DX001 (ip), vehicle: carboxymethylcellulose (CMC) 101 % of control

CC(=O)/C=C/c1c[nH]c(=O)[nH]c1=O
inactive: endpoint: mean survival time, dose: 100.0 mg/kg/injection, schedule: Q04DX002 (ip), vehicle: saline with Tween-80 104 % of control | endpoint: mean survival time, dose: 200.0 mg/kg/injection, schedule: Q04DX002 (ip), vehicle: saline with Tween-80 104 % of control | endpoint: mean survival time, dose: 400.0 mg/kg/injection, schedule: Q04DX002 (ip), vehicle: saline with Tween-80 93 % of control

CCCCCCCCCCCCCCCCCC(=O)N/N=C/CCc1ccccc1
inactive: [1] 87 % of control
